Assay results taken from patent US20210051954A1, “METHOD FOR INCREASING THE RESISTANCE OF A CEREAL PLANT” (BASF AGROCHEMICAL PRODUCTS B.V., priority 2018, published 2021).

Experiments:
Maize (Corn) = assay: % germination in maize (corn) by drench treatment, 21 days after planting; type: in vivo; details: 30% FS formulation; for % Germination in Mineral soil in Standard conditions: standard watered conditions (moisture above 80%); for % Germination in Organic soil in Draught conditions: drought conditions (re-watering at 45% pot moisture)
Source text: (§1) Watering cycles—The level of stress is created by watering the pots based on the % of pot moisture as measured by wireless probes. Depending on weather conditions the number of cycles vary as needed.
(§2) The % of moisture triggers the watering process independent of the time that it takes to reach this point.
(§3) In “well-watered conditions” or “standard watered conditions”, in pots the % moisture is kept above 80%.
(§4) In “drought conditions”, in the pots re-watering happens at 45% pot moisture.
(§5) “Untreated” means that the seed has not been exposed to the compound I (a).
(§6) The treaments(s) were applied directly over the planted seed at the rates found in the table(s) below. Seeds were then covered and the % rate of germination was calculated at 21 days after planting.
(§7) The % rate of germination was calculated as the number of seeds that emerged divided by the number of seeds planted and presented as as a percentage.
(§8) Seeds were planted in two types of soil (Mineral and Organic) which were free of pest (insects, weeds, or diseases) to avoid interactions with the treatments applied
Example 1: Increase in % of Germination in Maize (Corn) by Drench Treatment

Wheat = assay: % germination in wheat by seed treatment, 21 days after planting; type: in vivo; details: 0.5 mg of (la)/plant, 30% FS formulation
Source text: as §1, §2, §3, §4, §5, §6, §7, §8
Example 2: Increase % Germination in Wheat by Seed Treatement

**Q.** How did the “% Germination in Mineral soil in Standard conditions” value (“% Germination in Mineral soil” below) (Maize (Corn); 0.5 mg of (la)/plant) turn out when `CN(C(=O)c1ccccc1)c1cccc(C(=O)Nc2c(Br)cc(C(F)(C(F)(F)F)C(F)(F)F)cc2C(F)(F)F)c1F` [(la)] was run?
**A.** 100%

**Q.** What about the “% Germination in Organic soil in Draught conditions” value (Maize (Corn); 0.5 mg of (la)/plant) of the same compound?
**A.** 98%

**Q.** What about the “% Germination in Mineral soil” value (Maize (Corn); 1 mg of (la)/plant) of the same compound?
**A.** 100%

**Q.** And the “% Germination in Organic soil in Draught conditions” value (Maize (Corn); 1 mg of (la)/plant)?
**A.** 100%

**Q.** And the “% Germination in Mineral soil” value (Wheat; mineral soil, standard watered conditions (moisture above 80%))?
**A.** 95%

**Q.** What about the “% Germination in Organic soil in Draught conditions” value (Wheat; organic soil, drought conditions (re-watering at 45% pot moisture)) of the same compound?
**A.** 95%

**Q.** And the “% Germination in Organic soil in Standard conditions” value (Wheat; organic soil, standard watered conditions (moisture above 80%))?
**A.** 100%
